Seven compounds from US7214714B2, “20-hydroxyeicosatetraenoic acid production inhibitors” (Taisho Pharmaceutical Co. Ltd., priority 2001, dated 2007) can be followed below.

Each structure is given as a SMILES string. pIC50: −log10 of the molar value.

The target of data set [1] is 20-HETE-Producing Enzyme derived from Human Renal Microsome. Briefly: Inhibitory action to 20-HETE-producing enzyme derived from human renal microsome. In kind it is biochemical. To be noted: human renal microsome fraction, tritium-arachidonic acid substrate, NADPH, 37° C., 1.5 hours, pH 7.4; read-out: IC50 (inhibition of 20-HETE production). As to the method: Inhibitory Action to 20-HETE-Producing Enzyme derived from Human Renal Microsome
With regard to the compounds listed in the above table, their inhibitory actions to 20-HETE production were tested.
This test was carried out in accordance with a method mentioned in J. Pharmacol. Exp. Ther., volume 268, page 474 (1994).
A solution of the test compound adjusted to 1 μM using DMSO was added to a 50 mM of 3-morpholinopropanesulfonic acid buffer (MOPS) (pH 7.4) containing 5 mM of magnesium chloride and 1 mM of sodium ethylenediaminetetraacetate (EDTA), then human renal microsome fraction (Human Cell Culture Center, Anatomic Gift Foundation), [5,6,8,9,11,12,15]tritium-arachidonic acid and NADPH were added thereto as an enzymatic source, a substrate and a coenzyme, respectively and reaction was carried out at 37° C. for 1.5 hours. Formic acid was added to the reaction solution to stop the reaction and then acetonitrile was added thereto (final concentration: 50%). Amount of 20-HETE produced thereby was measured using a high performance liquid chromatography equipped with a radioactive substance detector having an ODS column (Biosil C18; manufactured by Biorad).
Amount of 20-HETE produced when no compound was added was defined as 100% and the concentration of the compound when production of 20-HETE was inhibited to an extent of 50% upon addition of a compound (IC50 value) was calculated.

As a reminder, the melting point is the temperature, or range, at which the solid turns liquid. By pIC50 is commonly meant the IC50 on a negative log10 scale, so that one unit is a factor of ten. For `CC(=O)N1CCN(c2ccc(N/C=N/O)cn2)CC1` [Compound 129], the melting point is 191 to 192 °C (dec.). Besides, in data set [1], the pIC50 is 8.08.
The matching figures for `Cl.OCCN1CCN(c2ccc(N/C=N/O)cc2)CC1` [Compound 79]: 170 °C (dec.) and 7.14.
The matching figures for `CN(C)CCN1CCN(c2ccc(N/C=N/O)cc2)CC1.Cl` [Compound 86]: 188 to 190 °C (dec.) and 6.02.
On the same counts, the results for `O/N=C/Nc1ccc(N2CCCCCC2)c(F)c1` [Compound 22] are 112 to 115 °C and 8.68.
On to `Cl.O=C(CN1CCN(c2ccc(N/C=N/O)cc2Cl)CC1)N1CCOCC1` [Compound 100], for which the melting point was 110 to 114 °C. Besides, in data set [1], the pIC50 is 7.44.
The matching figures for `Cc1cc(N2CCN(C3CCCCC3)CC2)ccc1N/C=N/O.Cl` [Compound 111]: 230 to 232 °C (dec.) and 7.15.
The matching figures for `O/N=C/Nc1ccc(N2CCN(CCN3CCCC3)CC2)c(Br)c1` [Compound 95]: 163 to 165 °C and 7.12.
